Tests used:
[1] = test system: Human immunodeficiency virus 1; assay: Synergistic inhibition of HIV-1 p66/p51 reverse transcriptase K103N/Y181C double mutant assessed as combination index using poly(rA)/oligo(dT) as templates in presence of [3H]dTTP preincubated with enzyme and AZTTP followed by substrate addition; assay type: functional
[2] = target: Human immunodeficiency virus type 1 reverse transcriptase (Human immunodeficiency virus 1, UniProt Q72547); assay: Binding affinity to free form of wild type HIV-1 p66/p51 reverse transcriptase using poly(rA)/oligo(dT) as templates in presence of [3H]dTTP
[3] = target: Human immunodeficiency virus type 1 reverse transcriptase (Human immunodeficiency virus 1) (UniProt Q72547); assay: Binding affinity to wild type HIV-1 p66/p51 reverse transcriptase/nucleic acid/dTTP ternary complex assessed as dissociation constant using poly(rA)/oligo(dT) as templates in presence of [3H]dTTP
[4] = test system: Human immunodeficiency virus 1; assay: Ratio of Koff of HIV-1 p66/p51 reverse transcriptase K103N/Y181C double mutant/nucleic acid/dTTP ternary complex to Koff of free form of HIV-1 p66/p51 reverse transcriptase using poly(rA)/oligo(dT) as templates in presence of [3H]dTTP
[5] = test system: Human immunodeficiency virus 1; assay: Antiviral activity against HIV-1 NL4-3 infected in human MT-4 cells assessed as virus induced cytopathic effect by MTT assay; assay type: functional, organism-based; details: Human immunodeficiency virus 1, NL4-3, MT4
[6] = target: Human immunodeficiency virus type 1 reverse transcriptase (Human immunodeficiency virus 1) (UniProt Q72547); assay: Binding affinity to free form of wild type HIV-1 p66/p51 reverse transcriptase assessed as dissociation constant using poly(rA)/oligo(dT) as templates in presence of [3H]dTTP
[7] = test system: Human immunodeficiency virus 1; assay: Inhibition of HIV1 p66/p51 reverse transcriptase K103N/Y181C double mutant assessed as apparent Vmax at 150 nM using 10 to 500 uM poly(rA)/oligo(dT) as templates in presence of fixed concentration of [3H]dTTP by Michaelis-Menten analysis (reference value: 12 +/- 1%)
[8] = test system: Human immunodeficiency virus 1; assay: Ratio of Kon of HIV-1 p66/p51 reverse transcriptase K103N/Y181C double mutant/nucleic acid/dTTP ternary complex to Kon of HIV-1 p66/p51 reverse transcriptase/nucleic acid binary complex using poly(rA)/oligo(dT) as templates in presence of [3H]dTTP
[9] = Inhibition of RNA-dependent DNA polymerase activity of recombinant HIV-1 p66/p51 reverse transcriptase Y188L mutant assessed as inhibition of [3H]dTTP incorporation using poly(rA)/oligo(dT) as templates incubated for 15 mins by MicroBeta scintillation counting method; parameters: species or system Human immunodeficiency virus 1
[10] = test system: Human immunodeficiency virus 1; assay: Inhibition of HIV1 p66/p51 reverse transcriptase K103N/Y181C double mutant assessed as apparent Vmax at 300 nM using 10 to 500 uM poly(rA)/oligo(dT) as templates in presence of fixed concentration of [3H]dTTP by Michaelis-Menten analysis (reference value: 12 +/- 1%)
[11] = test system: Human immunodeficiency virus 1; assay: Binding affinity to free form of HIV-1 p66/p51 reverse transcriptase K103N/Y181C double mutant assessed as dissociation constant using poly(rA)/oligo(dT) as templates in presence of [3H]dTTP
[12] = test system: Human immunodeficiency virus 1; assay: Binding affinity to HIV-1 p66/p51 reverse transcriptase K103N/Y181C double mutant/nucleic acid/dTTP ternary complex assessed as association constant using poly(rA)/oligo(dT) as templates in presence of [3H]dTTP
[13] = test system: Human immunodeficiency virus 1; assay: Binding affinity to HIV-1 p66/p51 reverse transcriptase K103N/Y181C double mutant/nucleic acid binary complex assessed as dissociation constant using poly(rA)/oligo(dT) as templates in presence of [3H]dTTP
[14] = target: Human immunodeficiency virus type 1 reverse transcriptase (Human immunodeficiency virus 1) (UniProt Q72547); assay: Binding affinity to free form of wild type HIV-1 p66/p51 reverse transcriptase assessed as association constant using poly(rA)/oligo(dT) as templates in presence of [3H]dTTP
[15] = target: Human immunodeficiency virus type 1 reverse transcriptase (Human immunodeficiency virus 1) (UniProt Q72547); assay: Ratio of Kon of wild type HIV-1 p66/p51 reverse transcriptase/nucleic acid binary complex to Kon of free form of wild type HIV-1 p66/p51 reverse transcriptase using poly(rA)/oligo(dT) as templates in presence of [3H]dTTP
[16] = target: Human immunodeficiency virus type 1 reverse transcriptase (Human immunodeficiency virus 1) (UniProt Q72547); assay: Binding affinity to wild type HIV-1 p66/p51 reverse transcriptase/nucleic acid binary complex assessed as dissociation constant using poly(rA)/oligo(dT) as templates in presence of [3H]dTTP
[17] = test system: Human immunodeficiency virus 1; assay: Inhibition of HIV1 p66/p51 reverse transcriptase K103N/Y181C double mutant assessed as apparent Km of substrate at 300 nM using fixed concentration of poly(rA)/oligo(dT) as templates in presence of 2 to 100 uM of [3H]dTTP by Michaelis-Menten analysis (reference value: 9.2 +/- 1.4 uM)
[18] = target: Human immunodeficiency virus type 1 reverse transcriptase (Human immunodeficiency virus 1) (UniProt Q72547); assay: Binding affinity to wild type HIV-1 p66/p51 reverse transcriptase/nucleic acid/dTTP ternary complex assessed as association constant using poly(rA)/oligo(dT) as templates in presence of [3H]dTTP
[19] = Selectivity ratio of CC50 for human MT4 cells to EC50 for antiviral activity against HIV-1 NL4-3 infected in human MT4 cells; assay type: toxicity, cell-based; details: read-out: Ratio CC50/EC50
[20] = test system: Human immunodeficiency virus 1; assay: Antiviral activity against HIV1 harboring RT K103N mutant infected in human MT4 cells assessed as protection against virus-induced cytopathic effect by MTT assay; assay type: functional, organism-based; details: Human immunodeficiency virus 1, MT4
[21] = test system: Human immunodeficiency virus 1; assay: Inhibition of HIV1 p66/p51 reverse transcriptase K103N/Y181C double mutant assessed as apparent Vmax at 75 nM using fixed concentration of poly(rA)/oligo(dT) as templates in presence of 2 to 100 uM of [3H]dTTP by Michaelis-Menten analysis (reference value: 9.6 +/- 0.4%)
[22] = test system: Human immunodeficiency virus 1; assay: Inhibition of HIV1 p66/p51 reverse transcriptase K103N/Y181C double mutant assessed as apparent Vmax at 150 nM using fixed concentration of poly(rA)/oligo(dT) as templates in presence of 2 to 100 uM of [3H]dTTP by Michaelis-Menten analysis (reference value: 9.6 +/- 0.4%)
[23] = test system: Human immunodeficiency virus 1; assay: Antiviral activity against HIV1 harboring RT Y188L mutant infected in human MT4 cells assessed as protection against virus-induced cytopathic effect by MTT assay; assay type: functional, organism-based; details: Human immunodeficiency virus 1, MT4
[24] = test system: Human immunodeficiency virus 1; assay: Ratio of Kon of HIV-1 p66/p51 reverse transcriptase K103N/Y181C double mutant/nucleic acid/dTTP ternary complex to Kon of free form of HIV-1 p66/p51 reverse transcriptase using poly(rA)/oligo(dT) as templates in presence of [3H]dTTP
[25] = target: Human immunodeficiency virus type 1 reverse transcriptase (Human immunodeficiency virus 1) (UniProt Q72547); assay: Synergistic inhibition of wild type HIV-1 p66/p51 reverse transcriptase assessed as combination index using poly(rA)/oligo(dT) as templates in presence of [3H]dTTP preincubated with enzyme and AZTTP followed by substrate addition
[26] = test system: Human immunodeficiency virus 1; assay: Resistance index, ratio of EC50 for antiviral activity against HIV1 harboring RT Y188L mutant infected in human MT4 cells to EC50 for antiviral activity against HIV1 NL4-3 infected in human MT4 cells; assay type: functional

For `Cc1cc(C)cc(S(=O)(=O)c2c(C(=O)NCc3ccccc3O)[nH]c3ccc(Cl)cc23)c1`, the CI [1] was 0.81, the Ki [2] was 31 nM and the K [3] was 4.1 10^-3/s. For the same compound, the Ratio [4] was 4, the EC50 [5] was less than 0.7 nM and the K [6] was 4 10^-3/s. It also gave a Vmax(app) [7] of 6%, a Ratio [8] of 4 and an IC50 [9] of 61 nM. The Vmax(app) [10] was 3.2%, the K [11] was 14 10^-3/s and the K [12] was 42 10^-5/nM/s. For the same compound, the K [13] was 8 10^-3/s, the K [14] was 13 10^-5/nM/s and the Ratio [15] was 7. For the same compound, the K [16] was 35 10^-3/s, the Km [17] was 1.9 µM and the K [18] was 15 10^-5/nM/s. The selectivity ratio [19] was greater than 39700, the EC50 [20] was less than 0.7 nM and the Vmax(app) [21] was 6.2%. For the same compound, the Vmax(app) [22] was 2.9%, the EC50 [23] was 21.3 nM and the Ratio [24] was 4. The CI [25] was 1.15 and the “Ratio EC50” value [26] was greater than 30.

— ChEMBL document CHEMBL4706559, “New indolylarylsulfone non-nucleoside reverse transcriptase inhibitors show low nanomolar inhibition of single and double HIV-1 mutant strains” (Eur J Med Chem, 2020)
